Data published in patent US8003372B2, “Device for performing cell assays” (The University Court of the University of Glasgow, priority 2002, dated 2011).

System: adult ventricular myocytes
Procedure: Single cardiac myocytes were isolated from rabbit ventricles by collagenase digestion (D. A. Eisner, C. G. Nichols, S. C. O'Neill, G. L. Smith and M. Valdeomillos, The effects of metabolic inhibition on intracellular calcium an pH in isolated rat ventricular cells, Journal of Physiology, 411, (1989), 393-418) and kept in Base Krebs Solution, containing 120 mM NaCl, 20 mM sodium N-hydroxyethylpiperazine-N′-2-ethane sulphonic acid, 5.4 mM KCl, 0.52 mM NaH2PO4, 3.5 mM MgCl2.6H2O, 20 mM Taurine, 10 mM Creatine, 100 mM Glucose, 0.1% BSA, 0.1 mM CaCl2. The pH was adjusted to 7.4 with 100 mM NaOH.
Sarcomere length and intracellular Ca^2+ concentration ([Ca^2+]i) were monitored simultaneous using the fluorescence-contractility System of Ionoptix (Milton, Mass., USA). Ventricular myocytes were loaded with Fluo-3 by incubation for 30 min in 20 μM Fluo-3 AM solution (Molecular Probes). […] To measure the possible change in extracellular pH during field stimulation, 10 μM BCECF (Molecular Probes) was added to the bath and the emission was recorded using the same filter set as for Fluo-3. […]
Symmetric biphasic rectangular pulses were generated across the electrodes. […] A voltage-current converter was used to read the current response of one electrode together with the corresponding voltage into a 20 MHz 4 channel acquisition card (PCI-9812, Adlink, Taiwan). A TTL signal synchronous to the biphasic pulses was fed into the reader of the PMT-current to mark each pulse arrival on the fluorescence trace for off-line event averaging. After filling the microchambers with electrolyte (buffer), the current evoked on the individual stimulation electrodes was monitored to assure the ionic connection between the microelectrodes in each chamber, prior to the addition of cardiac muscle cells. The measured current was integrated to give a measure of the total amount of net-charge added to the microchamber, and the polarization of the electrode surface. […]

N#CC(C#N)=NNc1ccc(OC(F)(F)F)cc1 [FCCP]
Ca2+ transients evoked at 0.5 Hz (1 μM FCCP, 10 minutes after the 50 min time point of continual stimulation, 100 pL chamber): ceased almost completely
response of the cell to electrical stimuli (Ca2+ transient) (1 μM FCCP, after 50 min continual stimulation at alternating frequencies of 0.5 and 1.0 Hz, 100 pL chamber): no longer responded to every single stimulus with a Ca^2+ transient of normal amplitude
excitability of the cell after washing out (after washing out FCCP, changing the buffer and a 5 min rest interval): regained its excitability
